Data set [1] relates to SH-SY5Y cells.
Excerpt: The PKIS2 Library was supplied by The Structural Genomics Consortium at the University of North Carolina at Chapel Hill.
Data set [2] relates to endogenous TFE3. Put plainly: TFE3 nuclear translocation, immunocytochemistry high-content imaging. Type of data set: cell-based.
For data set [3], the system named is endogenous TFEB. Put plainly: TFEB nuclear translocation, immunocytochemistry high-content imaging. Type of data set: cell-based.
For data set [4], the system named is SH-SY5Y cells. Put plainly: Nuclear count from microscopy images (cellular growth and toxicity). Note: reference of the scale not given here.
In data set [5] the test system is SH-SY5Y cells. Put plainly: AK (adenylate kinase) release ToxiLight cytotoxicity assay. Note: reference of the scale not given here.
[6] abbreviates: PKIS2 primary screening, DQ Red BSA intensity.
The mark [7] stands for this setting: PKIS2 primary screening, DQ Red BSA spot count.

We go through 14 compounds from PMC9851200, “Multiparameter phenotypic screening for endogenous TFEB and TFE3 translocation identifies novel chemical series modulating lysosome function” (Autophagy, 2022).

Read-outs that look alike come from different tables or passages of the source.
Throughout, for DQ Intensity: reference of the scale not given here.
Throughout, for DQ Spot: reference of the scale not given here.

With `Nc1ncnc2occ(-c3ccc4c(c3)CCN4C(=O)Cc3cc(F)ccc3F)c12` [UNC10225000A], in data set [1] (setting [6]), the “DQ Intensity” value worked out at 134.29. In data set [1] (setting [7]), the “DQ Spot” value is listed as 108.59. Further, in data set [2] (PKIS2 primary screening), the TFE3 % is reported as 4.51%. In data set [3] (PKIS2 primary screening), this compound had a TFEB % of 2.84%. Moreover, in data set [4] (PKIS2 primary screening), the “Nuclear Count” value is listed as 124.09. For the same compound, in data set [5] (PKIS2 primary screening), the AK is reported as 111.48.

With `Cl.Cl.NCC(NCc1ccc(-c2ccnc3[nH]ccc23)s1)c1ccccc1` (stereo not drawn) [UNC10225471A], the “DQ Intensity” value in data set [1] (setting [6]) is 100.58. Moreover, the “DQ Spot” value in data set [1] (setting [7]) came out at 94.95. Besides, in data set [2] (PKIS2 primary screening), the TFE3 % was 13.41%. Besides, in data set [3] (PKIS2 primary screening), the TFEB % worked out at 4.03%. Also, the “Nuclear Count” value in data set [4] (PKIS2 primary screening) came out at 123.37. Also, in data set [5] (PKIS2 primary screening), the AK worked out at 98.53.

For `COC(=O)c1cccc(NC(=O)NC2CCN(c3ccnc(Nc4ccc(OC)cc4)n3)C2)c1` (stereo not drawn) [GSK1379746], in data set [1] (setting [6]), the “DQ Intensity” value stood at 97.94. Moreover, in data set [1] (setting [7]), the “DQ Spot” value turned out to be 97.45. Besides, the TFE3 % in data set [2] (PKIS2 primary screening) is 11.39%. Besides, the TFEB % in data set [3] (PKIS2 primary screening) is recorded as 6.50%. Further, the “Nuclear Count” value in data set [4] (PKIS2 primary screening) is 105.57. The AK in data set [5] (PKIS2 primary screening) was found to be 99.00.

Regarding `COc1cc(Nc2ncc3c(C)nc(-c4cc5ccccc5[nH]4)n3n2)cc(OC)c1OC` [UNC10225084A], in data set [1] (PKIS2 primary screening), the “DQ Intensity” value was 112.41 and the “DQ Spot” value came to 111.83. This compound also showed a TFE3 % in data set [2] (PKIS2 primary screening) of 14.67%. The same compound gave a TFEB % in data set [3] (PKIS2 primary screening) of 3.01%. Moreover, the “Nuclear Count” value in data set [4] (PKIS2 primary screening) was found to be 82.05. Further, the AK in data set [5] (PKIS2 primary screening) was found to be 112.96.

On to `C[C@@H](Oc1cc(-n2cnc3ccc(-c4ccncc4)cc32)sc1C(N)=O)c1ccccc1Cl` [UNC10225348A], for which, in data set [1] (PKIS2 primary screening), the “DQ Intensity” value turned out to be 133.73 and the “DQ Spot” value turned out to be 158.98. In data set [2] (PKIS2 primary screening), this compound returned a TFE3 % of 36.52%. The compound also yielded a TFEB % in data set [3] (PKIS2 primary screening) of 10.36%. The “Nuclear Count” value in data set [4] (PKIS2 primary screening) came out at 41.11. Besides, the AK in data set [5] (PKIS2 primary screening) turned out to be 91.16.

Turning to `Cn1cc(-c2ccc3c(c2)CCN3C(=O)Cc2cc(F)cc(C(F)(F)F)c2)c2c(N)ncnc21` [UNC10225478A], in data set [1] (PKIS2 primary screening), the “DQ Intensity” value stood at 103.20 and the “DQ Spot” value is listed as 103.08. The TFE3 % in data set [2] (PKIS2 primary screening) worked out at 18.35%. For the same compound, the TFEB % in data set [3] (PKIS2 primary screening) was found to be 5.80%. In data set [4] (PKIS2 primary screening), the “Nuclear Count” value was determined as 95.63. In data set [5] (PKIS2 primary screening), this compound returned an AK of 72.42.

`Cc1c(Cn2c(C)c(C)n3c(=O)cc(N4CCOCC4)nc23)cccc1C(F)(F)F` [UNC10225225A]: in data set [1] (PKIS2 primary screening), the “DQ Intensity” value came to 84.00 and the “DQ Spot” value was found to be 96.71. In data set [2] (PKIS2 primary screening), the TFE3 % turned out to be 8.46%. In data set [3] (PKIS2 primary screening), this compound gave a TFEB % of 3.43%. The “Nuclear Count” value in data set [4] (PKIS2 primary screening) was determined as 111.32. For the same compound, the AK in data set [5] (PKIS2 primary screening) is on record as 106.72.

Take `CN1CCN(Cc2ccc(NC(=O)Nc3ccc(N(C)c4ccnc(Nc5ccc(CS(C)(=O)=O)cc5)n4)cc3)cc2)CC1` [GW827654]: the “DQ Intensity” value in data set [1] (setting [6]) turned out to be 92.35. In addition, the “DQ Spot” value in data set [1] (setting [7]) is reported as 93.05. The TFE3 % in data set [2] (PKIS2 primary screening) was 10.58%. In addition, the TFEB % in data set [3] (PKIS2 primary screening) was 6.08%. In data set [4] (PKIS2 primary screening), the “Nuclear Count” value was found to be 120.62. Further, the AK in data set [5] (PKIS2 primary screening) was found to be 74.74.

`O=C(Nc1c(F)cccc1F)c1cc(C(=O)c2ccccc2F)c[nH]1` [UNC10225351A]: in data set [1] (PKIS2 primary screen, DQ Red BSA intensity), the “DQ Intensity” value was 115.15. The “DQ Spot” value in data set [1] (PKIS2 primary screen, DQ Red BSA spot count) was 113.72. In data set [2] (PKIS2 primary screen), the TFE3 % was 7.96%. The TFEB % in data set [3] (PKIS2 primary screen) is reported as 3.75%. Moreover, in data set [4] (PKIS2 primary screen), the “Nuclear Count” value is on record as 134.69. For the same compound, the AK in data set [5] (PKIS2 primary screen) is reported as 106.59.

For `COc1ccc(COc2cc(-n3cnc4ccccc43)sc2C(N)=O)cc1` [UNC10225127A], in data set [1] (PKIS2 primary screening), the “DQ Intensity” value came out at 119.47 and the “DQ Spot” value turned out to be 107.75. This compound also registered a TFE3 % in data set [2] (PKIS2 primary screening) of 11.50%. For the same compound, the TFEB % in data set [3] (PKIS2 primary screening) amounted to 4.73%. Also, the “Nuclear Count” value in data set [4] (PKIS2 primary screening) was found to be 109.00. Moreover, in data set [5] (PKIS2 primary screening), the AK is reported as 69.30.

For `NCC(NC(=O)c1cc(-c2cn[nH]c2)c(-c2ccnc3[nH]ccc23)s1)c1ccccc1.O=C(O)C(F)(F)F.O=C(O)C(F)(F)F` (stereo not drawn) [UNC10225196A], the “DQ Intensity” value in data set [1] (setting [6]) was found to be 69.88. Besides, in data set [1] (setting [7]), the “DQ Spot” value came to 101.21. Further, in data set [2] (PKIS2 primary screening), the TFE3 % was 18.18%. In data set [3] (PKIS2 primary screening), this compound gave a TFEB % of 5.85%. Besides, in data set [4] (PKIS2 primary screening), the “Nuclear Count” value is recorded as 81.98. For the same compound, the AK in data set [5] (PKIS2 primary screening) is 105.21.

On to `Clc1ccc(-c2cc(-c3c[nH]nc3-c3ccccn3)ccn2)cc1` [UNC10225057A], for which, in data set [1] (setting [6]), the “DQ Intensity” value is recorded as 80.85. Also, in data set [1] (setting [7]), the “DQ Spot” value came to 100.06. The same compound displayed a TFE3 % in data set [2] (PKIS2 primary screening) of 9.30%. In data set [3] (PKIS2 primary screening), this compound came in with a TFEB % of 5.33%. Further, the “Nuclear Count” value in data set [4] (PKIS2 primary screening) came out at 99.07. In data set [5] (PKIS2 primary screening), this compound registered an AK of 69.86.

As to `CC(C)S(=O)(=O)N1CCN(Cc2ccc3c(c2)nc(NC(=O)c2ccsc2)n3C[C@H](O)c2ccccc2)CC1` [GW635815], the “DQ Intensity” value in data set [1] (setting [6]) is recorded as 100.23. Besides, the “DQ Spot” value in data set [1] (setting [7]) worked out at 98.01. The TFE3 % in data set [2] (PKIS2 primary screening) is on record as 6.25%. In addition, the TFEB % in data set [3] (PKIS2 primary screening) turned out to be 6.81%. For the same compound, the “Nuclear Count” value in data set [4] (PKIS2 primary screening) worked out at 125.41. Moreover, the AK in data set [5] (PKIS2 primary screening) was found to be 78.91.

Regarding `O=C(O)C(F)(F)F.O=c1[nH]ccc2nc(N[C@@H]3CCNC3)nc(Nc3cc(Cl)cc(Cl)c3)c12` [UNC10225257A], in data set [1] (PKIS2 primary screening), the “DQ Intensity” value stood at 65.99 and the “DQ Spot” value is given as 83.26. Moreover, the TFE3 % in data set [2] (PKIS2 primary screening) worked out at 8.28%. The TFEB % in data set [3] (PKIS2 primary screening) is listed as 7.01%. In data set [4] (PKIS2 primary screening), the “Nuclear Count” value worked out at 111.57. For the same compound, the AK in data set [5] (PKIS2 primary screening) is reported as 117.20.
